Literature values in patent US20130184316A1, “METHODS FOR DIAGNOSING AND TREATING CONCUSSIVE DISORDERS” (priority 2010, published 2013).

Columns and labels:
[1] = system: patients with idiopathic cerebellar ataxia; settings: literature (Sprenger et al.); cited from earlier work
[2] = system: patients with type-2 episodic ataxia (EA2); settings: literature reports; cited from earlier work

| Structure (SMILES) | Gravity-dependent symptoms associated with ataxic episodes [1] | Symptoms of EA2 (including downbeat nystagmus) [2] |
| --- | --- | --- |
| Nc1ccncc1N [3,4-DAP, 3,4-diamino pyridine] | effective in ameliorating some gravity-dependent symptoms |  |
| CC(=O)Nc1nnc(S(N)(=O)=O)s1 [acetazolamide] |  | attenuated |
